Assay results as given in ChEMBL document CHEMBL4145514, “Unexplored antifungal activity of linear battacin lipopeptides against planktonic and mature biofilms of C. albicans” (Eur J Med Chem, 2018).
Converted amounts (≈) assume the structure as drawn. Blank lines part the entries; values can stand above or below the compound they belong to. The source made the active and inactive calls. The calls are words filed in the database; no cut-off is given here. Bridge positions count the residues as written; N and C are the ends. Square brackets hold non-standard residues; d marks the D form. Peptide text beside a SMILES is read from it. * marks the point of attachment. ξ: configuration not given here. Hexanoyl(4ξ-Me) = CCC(C)CCC(=O)*; X2 = CC(C)=CCC/C(C)=C/C(=O)*; dDab = NCC[C@@H](N)C(=O)O; X1 = CCC(C)CCC(O)CC(=O)*; Dab = NCC[C@H](N)C(=O)O

Experiments:
[1] = tested on: Candida albicans; experiment: Antifungal activity against Candida albicans SC5314 after 48 hrs; type: functional; details: SC5314, 48 h
[2] = tested on: Candida albicans; experiment: Antibiofilm activity against Candida albicans SC5314 incubated for overnight by XTT assay; type: functional
[3] = tested on: Candida albicans; experiment: Induction of eradication of 24 hrs old preformed Candida albicans SC5314 biofilm after 24 to 48 hrs by XTT assay; type: functional
[4] = tested on: Candida albicans; experiment: Induction of eradication of 48 hrs old preformed Candida albicans SC5314 biofilm up to 125 uM after 24 to 48 hrs by XTT assay; type: functional, organism-based
[5] = Haemolytic activity in mouse RBC at 6 uM incubated for 1 hr relative to control; type: ADME, cell-based, Erythrocyte; details: mouse red blood cells (erythrocytes), read-out: Activity
[6] = tested on: Candida albicans; experiment: Induction of morphological changes in Candida albicans SC5314 assessed as disruption of fungal cell walls at 0.5 to 10 times MIC after 45 mins by Uranyl acetate/Lead citrate staining based transmission electron microscopic analysis; type: functional, organism-based
[7] = tested on: Candida albicans; experiment: Induction of morphological changes in Candida albicans SC5314 assessed as disruption of fungal cell membranes at 0.5 to 10 times MIC after 45 mins by Uranyl acetate/Lead citrate staining based transmission electron microscopic analysis; type: functional, organism-based
[8] = tested on: Candida albicans; experiment: Induction of morphological changes in Candida albicans SC5314 assessed as necrosis of cytoplasm at 0.5 to 10 times MIC after 45 mins by Uranyl acetate/Lead citrate staining based transmission electron microscopic analysis; type: functional, organism-based
[9] = Toxicity in iv dosed Kunming mouse assessed as death counted daily for 14 days; type: organism-based; details: in vivo
[10] = tested on: Erythrocyte; experiment: Haemolytic activity in human RBC incubated for 2 hrs; type: ADME, cell-based
[11] = tested on: HEK293; experiment: Cytotoxicity against HEK293 cells after 48 hrs by MTT assay; type: cell-based; details: human, hek293, 48 h
[12] = tested on: Lipid bilayer; experiment: Disruption of phosphatidylcholine/ phosphatidylinositol/phosphatidylethanolamine membrane at 200 uM by colorimetric assay
[13] = tested on: Candida albicans; experiment: Synergistic antifungal activity against Candida albicans SC5314 after 48 hrs in presence of 400 nmol AmB; type: functional; details: SC5314, 48 h
[14] = tested on: Candida albicans; experiment: Synergistic antifungal activity against Candida albicans SC5314 assessed as FIC index after 48 hrs in presence of 400 nmol AmB; type: functional
[15] = tested on: Candida albicans; experiment: Synergistic antifungal activity against Candida albicans SC5314 after 48 hrs in presence of 800 nmol AmB; type: functional; details: SC5314, 48 h
[16] = tested on: Candida albicans; experiment: Synergistic antifungal activity against Candida albicans SC5314 assessed as FIC index after 48 hrs in presence of 800 nmol AmB; type: functional
[17] = tested on: Candida albicans; experiment: Ratio of MIC for Candida albicans SC5314 to MIC for Candida albicans SC5314 in presence of 400 nmol AmB; type: functional
[18] = tested on: Candida albicans; experiment: Ratio of MIC for Candida albicans SC5314 to MIC for Candida albicans SC5314 in presence of 800 nmol AmB; type: functional
[19] = tested on: Candida albicans; experiment: Induction of eradication of 48 hrs old preformed Candida albicans SC5314 biofilm at 62.5 uM after 24 to 48 hrs by XTT assay; type: functional, organism-based
[20] = Haemolytic activity in mouse RBC at 1 mM incubated for 1 hr relative to control; type: ADME, cell-based, Erythrocyte; details: mouse red blood cells (erythrocytes), read-out: Activity
[21] = tested on: Candida albicans; experiment: Induction of morphological changes in Candida albicans SC5314 assessed as formation of distorted shape cells at MIC after 45 mins by Uranyl acetate/Lead citrate staining based transmission electron microscopic analysis; type: functional, organism-based
[22] = tested on: Candida albicans; experiment: Induction of morphological changes in Candida albicans SC5314 assessed as formation of abnormal curvature of cell membranes at MIC after 45 mins by Uranyl acetate/Lead citrate staining based transmission electron microscopic analysis; type: functional, organism-based
[23] = tested on: Candida albicans; experiment: Induction of morphological changes in Candida albicans SC5314 assessed as disruption of fungal cell walls at 10 times MIC after 45 mins by Uranyl acetate/Lead citrate staining based transmission electron microscopic analysis; type: functional, organism-based
[24] = tested on: Candida albicans; experiment: Induction of morphological changes in Candida albicans SC5314 assessed as disruption of fungal cell membranes at 10 times MIC after 45 mins by Uranyl acetate/Lead citrate staining based transmission electron microscopic analysis; type: functional, organism-based
[25] = tested on: Candida albicans; experiment: Induction of morphological changes in Candida albicans SC5314 assessed as necrosis of cytoplasm at 10 times MIC after 45 mins by Uranyl acetate/Lead citrate staining based transmission electron microscopic analysis; type: functional, organism-based
[26] = tested on: Candida albicans; experiment: Induction of ROS generation in Candida albicans SC5314 after 24 to 48 hrs by DCF-DA staining based fluorescence assay; type: functional, organism-based
[27] = tested on: Candida albicans; experiment: Induction of ROS generation in Candida albicans SC5314 at 0.2 to 100 uM after 24 to 48 hrs in presence of ascorbic acid by DCF-DA staining based fluorescence assay; type: functional, organism-based
[28] = tested on: Candida albicans; experiment: Ratio of MBEC50 for 24 hrs old preformed Candida albicans SC5314 biofilm to MIC for Candida albicans SC5314; type: functional
[29] = tested on: Candida albicans; experiment: Potency index, ratio of MIC for polymyxin B to compound MIC for antifungal activity against Candida albicans SC5314; type: functional

Compound: CCC(C)CCC(O)CC(=O)N[C@H](CCN)C(=O)N[C@H]1CCNC(=O)[C@H](CC(C)C)NC(=O)[C@H](CCN)NC(=O)[C@H](CCN)NC(=O)[C@@H](Cc2ccccc2)NC(=O)[C@H](CC(C)C)NC(=O)[C@H](CCN)NC1=O (stereo partly specified) (X1-[dDab][Dab][Dab]L[dF][Dab][Dab]L; lactam 2-C)
- LD50 at 336 h [9]: 6 mg/kg
- Activity [10]: > 750 µg/mL
- Activity [11]: > 128 µg/mL

Compound: CC(C)C[C@H](NC(=O)[C@H](CCN)NC(=O)[C@H](CCN)NC(=O)[C@@H](Cc1ccccc1)NC(=O)[C@H](CC(C)C)NC(=O)[C@H](CCN)NC(=O)[C@H](CCN)NC(=O)[C@@H](CCN)NC(=O)[C@H](N)CS)C(N)=O
- MIC [1]: > 100 µM

Compound: CCCCC(=O)N[C@H](CCN)C(=O)N[C@@H](CCN)C(=O)N[C@@H](CCN)C(=O)N[C@@H](CC(C)C)C(=O)N[C@H](Cc1ccccc1)C(=O)N[C@@H](CCN)C(=O)N[C@@H](CCN)C(=O)N[C@@H](CC(C)C)C(N)=O
- MIC [1]: > 100 µM
- Activity [12]: inactive

Compound: CCC(C)CCC(=O)N[C@H](CCCCN)C(=O)N[C@@H](CCCCN)C(=O)N[C@@H](CCCCN)C(=O)N[C@@H](CC(C)C)C(=O)N[C@H](Cc1ccccc1)C(=O)N[C@@H](CCCCN)C(=O)N[C@@H](CCCCN)C(=O)N[C@@H](CC(C)C)C(N)=O (stereo partly specified)
- MIC [1]: > 100 µM

Compound: CCCCCC(=O)N[C@H](CCN)C(=O)N[C@@H](CCN)C(=O)N[C@@H](CCN)C(=O)N[C@@H](CC(C)C)C(=O)N[C@H](Cc1ccccc1)C(=O)N[C@@H](CCN)C(=O)N[C@@H](CCN)C(=O)N[C@@H](CC(C)C)C(N)=O
- MIC [1]: 100 µM (≈ 98.9 µg/mL)
- Activity [12]: inactive

Compound: CCC(C)CCC(=O)N[C@H](CCN)C(=O)N[C@@H](CCN)C(=O)N[C@@H](CCN)C(=O)N[C@@H](CC(C)C)C(=O)N[C@H](Cc1ccccc1)C(=O)N[C@@H](CCN)C(=O)N[C@@H](CCN)C(=O)N[C@@H](CC(C)C)C(N)=O (stereo partly drawn) ({Hexanoyl(4ξ-Me)}-[dDab][Dab][Dab]L[dF][Dab][Dab]L-NH2)
- MIC [1]: 50 µM (≈ 50.2 µg/mL)
- Ratio [29]: 2
- MIC [13]: 12.5 µM
- fractional inhibitory concentration index (FICI) [14]: 8.26
- MIC [15]: 1.56 µM
- fractional inhibitory concentration index (FICI) [16]: 1.03
- Ratio [17]: 4
- Ratio [18]: 8 - 32

Further compounds by falling MIC [1], results first:

- MIC [1]: 50 µM (≈ 52.1 µg/mL)
Compound: CC(C)=CCC/C(C)=C/C(=O)N[C@H](CCN)C(=O)N[C@@H](CCN)C(=O)N[C@@H](CCN)C(=O)N[C@@H](CC(C)C)C(=O)N[C@H](Cc1ccccc1)C(=O)N[C@@H](CCN)C(=O)N[C@@H](CCN)C(=O)N[C@@H](CC(C)C)C(N)=O (X2-[dDab][Dab][Dab]L[dF][Dab][Dab]L-NH2)

- MIC [1]: 12.5 µM (≈ 13.9 µg/mL)
Compound: CC(C)C[C@H](NC(=O)[C@H](CCN)NC(=O)[C@H](CCN)NC(=O)[C@@H](Cc1ccccc1)NC(=O)[C@H](CC(C)C)NC(=O)[C@H](CCN)NC(=O)[C@H](CCN)NC(=O)[C@@H](CCN)NC(=O)OCC1c2ccccc2-c2ccccc21)C(N)=O

- MIC [1]: 6.25 µM (≈ 17.2 µg/mL)
- MIC [13]: 1.56 µM
- MIC [15]: 0.78 µM
Compound: CCC(C)CCC(=O)N[C@H](CCN)C(=O)N[C@@H](CCN)C(=O)N[C@@H](CCN)C(=O)N[C@@H](CC(C)C)C(=O)N[C@H](Cc1ccccc1)C(=O)N[C@@H](CCN)C(=O)N[C@@H](CCN)C(=O)N[C@@H](CC(C)C)C(=O)N[C@H](CCN)C(=O)N[C@@H](CCN)C(=O)N[C@@H](CCN)C(=O)N[C@@H](CC(C)C)C(=O)N[C@H](Cc1ccccc1)C(=O)N[C@@H](CCN)C(=O)N[C@@H](CCN)C(=O)N[C@@H](CC(C)C)C(=O)N[C@H](CCN)C(=O)N[C@@H](CCN)C(=O)N[C@@H](CCN)C(=O)N[C@@H](CC(C)C)C(=O)N[C@H](Cc1ccccc1)C(=O)N[C@@H](CCN)C(=O)N[C@@H](CCN)C(=O)N[C@@H](CC(C)C)C(N)=O (stereo partly specified)
- fractional inhibitory concentration index (FICI) [14]: 1.25
- fractional inhibitory concentration index (FICI) [16]: 0.62
- Ratio [17]: 4
- Ratio [18]: 8 - 32
- MBIC50 [2]: 6.25 µM
- MBEC50 [3]: 25 µM
- Activity [19]: Active
- hemolysis at 1 h, 1000 µM [20]: 21%
- Activity [21]: Active
- Activity [22]: Active
- Activity [23]: Active
- Activity [24]: Active
- Activity [25]: Active
- Activity [26]: Dose-dependent effect
- Activity [27]: inactive
- Ratio [28]: 4

- MIC [1]: 1.56 µM (≈ 1.44 µg/mL)
Compound: C[C@@H]1[C@H](O)[C@@H](C)/C=C/C=C/C=C/C=C/C=C/C=C/C=C/[C@H](O[C@@H]2O[C@H](C)[C@@H](O)[C@H](N)[C@@H]2O)C[C@@H]2O[C@](O)(C[C@@H](O)C[C@@H](O)[C@H](O)CC[C@@H](O)C[C@@H](O)CC(=O)O[C@H]1C)C[C@H](O)[C@H]2C(=O)O [AMPHOTERICIN B]
- MBIC50 [2]: 0.78 µM
- MBEC50 [3]: 6.25 µM
- Activity [4]: inactive
- hemolysis at 1 h, 6 µM [5]: 50%
- Activity [6]: Active
- Activity [7]: Active
- Activity [8]: Active
